Where a name gives a salt, the structure may show the parent alone.
Target: T1, 5-lipoxygenase (Rattus norvegicus, UniProt P12527)
T1 construct: (RBL-1, ATCC NO. CRL 1378) cells of rats were used as a 5-lipoxygenase enzyme source; endogenous in cells; host or cells: RBL-1 (rat basophilic leukemia) cells, ATCC CRL 1378
T1 sequence (P12527 1-673): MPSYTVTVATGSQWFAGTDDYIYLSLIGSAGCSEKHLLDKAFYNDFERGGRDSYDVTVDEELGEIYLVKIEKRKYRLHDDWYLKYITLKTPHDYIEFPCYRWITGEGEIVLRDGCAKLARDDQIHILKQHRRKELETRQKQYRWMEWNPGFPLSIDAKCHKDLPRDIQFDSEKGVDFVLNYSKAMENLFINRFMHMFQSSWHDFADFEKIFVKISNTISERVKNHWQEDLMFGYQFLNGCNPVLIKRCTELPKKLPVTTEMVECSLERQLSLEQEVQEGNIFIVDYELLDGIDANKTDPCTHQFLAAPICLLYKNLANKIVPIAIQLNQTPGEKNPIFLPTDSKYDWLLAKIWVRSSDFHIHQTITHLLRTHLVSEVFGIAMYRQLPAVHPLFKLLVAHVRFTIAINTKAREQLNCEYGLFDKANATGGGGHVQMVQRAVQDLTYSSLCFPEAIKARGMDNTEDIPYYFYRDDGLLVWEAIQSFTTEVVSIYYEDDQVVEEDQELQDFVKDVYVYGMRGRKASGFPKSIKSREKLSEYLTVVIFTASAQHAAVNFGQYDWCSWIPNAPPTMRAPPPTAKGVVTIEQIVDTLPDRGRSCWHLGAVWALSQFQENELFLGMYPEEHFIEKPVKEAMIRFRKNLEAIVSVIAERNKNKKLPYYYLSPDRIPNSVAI
Assay: Inhibiting action on leukocyte 5-lipoxygenase in vitro (RBL-1 cells as enzyme source, 14C-arachidonic acid)
Format: biochemical, rats
Conditions: RBL-1 rat cells, 37° C., 5 minutes; for inhibition at 1 µM: 1 μM compound, read-out: 5-lipoxygenase-inhibiting activity: Percent inhibition at 1 μM compound concentration
Method: Inhibiting actions of test compounds shown in Table 2 on lipoxygenase in vitro were determined according to the following procedure.
Procedure for determining inhibiting actions on leukocyte 5-lipoxygenase:
Determination was conducted according to the modified B. A. Jakschik et al procedure [Biochim. Biophys. Res. Commun. 95, 103 (1980)]. That is, Leukemic basophilic granulocyte (RBL-1, ATCC NO. CRL 1378) cells of rats were used as a 5-lipoxygenase enzyme source, and the cells and a test compound were contacted with each other in a 0.07 M tris hydrochloric acid buffer solution in the presence of 0.7 μm moles of calcium chloride at 37° C. for 5 minutes, and then 20 μmoles of [^14 C]-arachidonic acid was added thereto. The mixture was subjected to reaction at 37° C. for 5 minutes. The reaction product was extracted with ethyl acetate/methanol/0.2 M citric acid (30/4/1) and the extract was subjected to a thin layer chromatographic separation (developing solvent: petroleum ether/ethyl ether/acetic acid=50/50/1), and the spot of […] in the product was scraped off and ^14 C was measured by a liquid scintillation counter.

An IC50 of 160 nM was found for `[O-][n+]1c(CCCCCCCCCCCOC2CCCCO2)cc(O)c2ccccc21` (stereo not shown) [Example 14, 4-hydroxy-2-[11-(2-tetrahydropyranyloxy)undecyl] quinoline-N-oxide] in this work.
An IC50 of 250 nM was found for `NCCCCCCCCCCCc1cc(O)c2ccccc2[n+]1[O-]` [Example 16, 4-hydroxy-2-(11-aminoundecyl) quinoline-Noxide. hydrochloride] in this work.
An IC50 of 220 nM was found for `[O-][n+]1c(CCCCCCCCCCCO)c(Br)c(O)c2ccccc21` [Example 5, 3-bromo-4-hydroxy-2-(11-hydroxyundecyl) quinoline-N-oxide] in this work.
An inhibition at 1 µM of 36.6% was found for `[O-][n+]1c(CCCCCCCCCCC=NO)cc(OCc2ccccc2)c2ccccc21` [Example 11] in this work.
An inhibition at 1 µM of 7.7% was found for `[O-][n+]1c(CCCCCCCCCCCO)cc(OCc2ccccc2)c2ccccc21` [1-(2), 4-benzyloxy-2-(11-hydroxyundecyl) quinoline-N-oxide] in this work.
An inhibition at 1 µM of 2.7% was found for `[O-][n+]1c(CCCO)cc(OCc2ccccc2)c2ccccc21` [Example 2, 4-benzyloxy-2-(3-hydroxypropyl) quinoline-N-oxide] in this work.
An IC50 of 280 nM was found for `[O-][n+]1c(CCCCCCCCCCCO)cc(O)c2ccccc21` [Example 3, 4-hydroxy-2-(11-hydroxyundecyl) quinoline-N-oxide] in this work.
An IC50 of 180 nM was found for `COC(CCCCCCCCCCc1cc(O)c2ccccc2[n+]1[O-])OC` [Example 19, 4-hydroxy-2-(11,11-dimethoxyundecyl) quinoline-Noxide] in this work.
An inhibition at 1 µM of 11.5% was found for `[O-][n+]1c(CCCOC2CCCCO2)cc(OCc2ccccc2)c2ccccc21` (stereo not shown) [Example 13, 4-benzyloxy-2-[3-(2-tetrahydropyranyloxy)propyl]quinoline-Noxide] in this work.
An inhibition at 1 µM of 32.4% was found for `[O-][n+]1c(CCCCCCCCCCCNCc2ccccc2)cc(OCc2ccccc2)c2ccccc21` [Example 10, 4-benzyloxy-2-[11-(N-benzylaminoundecyl)] quinoline-N-oxide] in this work.
An inhibition at 1 µM of 20% was found for `[O-][n+]1c(CCCCCCCCCCCOC2CCCCO2)cc(OCc2ccccc2)c2ccccc21` (stereo not shown) [Example 6, 4-benzyloxy-2-[11-(2-tetrahydropyranyloxy)undecyl] quinoline-N-oxide] in this work.
An inhibition at 1 µM of 33.1% was found for `O=CCCCCCCCCCCc1cc(OCc2ccccc2)c2ccccc2[n+]1[O-]` [Example 7, 4-benzyloxy-2-(10-formyldecyl) quinoline-N-oxide] in this work.
An inhibition at 1 µM of 27.3% was found for `O=C(O)CCCCCCCCCCc1cc(OCc2ccccc2)c2ccccc2[n+]1[O-]` [Example 8, 4-benzyloxy-2-(10-carboxydecyl) quinoline-N-oxide] in this work.
An inhibition at 1 µM of 37.2% was found for `COC(CCCCCCCCCCc1cc(OCc2ccccc2)c2ccccc2[n+]1[O-])OC` [Example 12, 4-benzyloxy-2-(11,11-dimethoxyundecyl) quinoline-N-oxide] in this work.
An IC50 of 1700 nM was found for `O=CCCCCCCCCCCc1cc(O)c2ccccc2[n+]1[O-]` [Example 20, 4-hydroxy-2-(10-formyldecyl) quinoline-Noxide] in this work.
An IC50 of 270 nM was found for `[O-][n+]1c(CCCCCCCCCCCNCc2ccccc2)cc(O)c2ccccc21` [Example 17, 4-hydroxy-2-[11-(N benzylaminoundecyl)] quinoline-Noxide] in this work.
An IC50 of 2700 nM was found for `O=C(O)CCCCCCCCCCc1cc(O)c2ccccc2[n+]1[O-]` [Example 15, 4-hydroxy-2-(10-carboxydecyl) quinoline-Noxide] in this work.
An inhibition at 1 µM of 27% was found for `NCCCCCCCCCCCc1cc(OCc2ccccc2)c2ccccc2[n+]1[O-]` [Example 9, 4-benzyloxy-2-(11-aminoundecyl) quinoline-N-oxide] in this work.
An inhibition at 1 µM of 1.6% was found for `[O-][n+]1c(CCCOC2CCCCO2)cc(O)c2ccccc21` (stereo not shown) [Example 4, 4-hydroxy-2-[3-(2-tetrahydropyranyloxy)propyl] quinoline-N-oxide] in this work.

— patent US4657916A, “Quinoline-N-oxide derivative and pharmaceutical composition” (Kyowa Hakko Kogyo Co., Ltd., priority 1984, dated 1987)
